Values joined by “and” are separate entries in the source; they are usually repeats but may differ in a detail not shown here. Equal entries are not always repeated. Structures can show the parent of a compound that is named as a salt. Where two headings read alike, the source gives them in different places.

Results on five compounds are retold here after patent US6479487B1, “6, 9-disubstituted 2-[trans-(4-aminocyclohexyl)amino] purines” (Aventis Pharmaceuticals Inc., priority 1998, dated 2002).

Test [1] relates to PC-3. In words: In vitro tumor cell proliferation, PC-3. In kind it is cell-based, human. The settings on record: many values given with an undefined *, read-out: In vitro Tumor Cell Proliferation (IC50, μM) Prostate PC-3. In a few lines:
(§1)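 Tumor cells were seeded overnight at 37° C, then exposed to drug diluted in culture medium for 3 days, refed with fresh drug-containing medium and kept 4 more days. Cells were fixed with 10% trichloroacetic acid and stained with 0.4% sulforhodamine B; alternatively, CyQUANT read proliferation after 3 days' drug exposure.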

For test [2], the system named is HCT-15. In words: In vitro tumor cell proliferation, HCT-15. As to conditions: Homo sapiens, HCT-15, HCT-15; read-out: In vitro Tumor Cell Proliferation (IC50, μM) Colon HCT-15. Format: cell-based, human. The procedure: The proliferation of tumor cells was measured using a sulforhodamine B assay as described in Skehan, P., et al., J. Natl. Cancer Inst. […] Tumor cells were harvested with trypsin-EDTA, cells that excluded trypan blue were counted, added to 96-well plates and incubated overnight at 37° C. Drug was added to the wells following dilution in culture medium. Three days later, the medium was removed and replenished with medium containing fresh drug and incubated an additional 4 days. The cells were then fixed with 0.1 ml 10% trichloroacetic acid for 60 min at 4° C. The plates were rinsed five times with tap water, air-dried and stained for 30 min with 0.4% sulforhodamine B in 1% acetic acid and air-dried.
Alternatively, the CyQUANT cell proliferation assay was used to quantitate cell proliferation.
Alternatively, the CyQUANT cell proliferation assay was used to quantify tumor cell proliferation. Tumor cells were harvested with trypsin-EDTA, cells that excluded trypan blue were counted, added to 96-well plates and incubated overnight at 37° C. Drug was added to the wells following dilution in culture medium. Three days later the medium was removed and the plates frozen at −80° C. for at least 30 minutes.

The subject of test [3] is MDA-MB-231. Briefly: In vitro tumor cell proliferation, MDA-MB-231. Format: cell-based, human. The settings on record: sulforhodamine B or CyQUANT assay, many values given with an undefined *, read-out: In vitro Tumor Cell Proliferation (IC50, μM) Breast MDA-MB-231. The gist of the method:
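Cells plated overnight at 37 °C, then exposed to drug for 3 days, refed with fresh drug and incubated 4 more days. Read-out by sulforhodamine B staining after TCA fixation; alternatively, CyQUANT after 3-day drug exposure and freezing at −80 °C.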

Test [4] relates to HT-29. Briefly: In vitro tumor cell proliferation, HT-29. The settings on record: many values given with an undefined *, read-out: In vitro Tumor Cell Proliferation (IC50, μM) Colon HT-29. In kind it is cell-based, human. In a few lines:
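HT-29 cells seeded overnight at 37° C, then exposed to drug for 3 days, refed with fresh drug-containing medium for 4 more days. Proliferation read by sulforhodamine B staining after TCA fixation; alternatively by CyQUANT after freezing plates at −80° C following 3 days' drug exposure.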

Test [5] deals with T1, cdk2/cyclin E (Homo sapiens, UniProt P24941).
T1 construct: made in house; host or cells: insect cells (baculovirus co-infection)
Briefly: Cyclin-Dependent Kinase 2 Assay (cdk2/cyclin E, GST-Rb substrate). In kind it is biochemical. As to conditions: recombinant cdk2/cyclin E, 10 μM ATP, 30 min at 30° C., several values in a cell = separate determinations, read-out: CDK-2 Inhibition IC50. The procedure:
Substrate: GST-Rb as described above for cdk4/cyclin D1
Assay conditions for cdk2/cyclin E were identical to those for cdk4/cyclin D1 including the substrate. The concentration of recombinant cdk2/cyclin E in the assay was 0.1 μg per 100 μl assay. Incubation was for 30 min at 30° C.

Test [6] deals with A549. Briefly: In vitro tumor cell proliferation, A549. Format: cell-based, human. As to conditions: many values given with an undefined *, read-out: In vitro Tumor Cell Proliferation (IC50, μM) Lung A549. The gist of the method:
as §1

Test [7] concerns DU145. Briefly: In vitro tumor cell proliferation, DU145. Format: cell-based, human. As to conditions: many values given with an undefined *, read-out: In vitro Tumor Cell Proliferation (IC50, μM) Prostate DU145. In a few lines: as §1
The subject of test [8] is DMS-114. Briefly: In vitro tumor cell proliferation, DMS-114. The settings on record: many values given with an undefined *, read-out: In vitro Tumor Cell Proliferation (IC50, μM) Lung DMS-114. In kind it is cell-based, human. The gist of the method:
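Human small cell lung carcinoma DMS-114 cells plated overnight, then drug-treated for 3 days, medium and drug renewed, and incubated 4 more days. Growth read by sulforhodamine B staining after TCA fixation; alternatively by CyQUANT after 3 days' drug exposure and freezing at −80 °C.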

For test [9], the system named is Colo-205. In words: In vitro tumor cell proliferation, Colo-205. Format: cell-based. The settings on record: values given with an undefined *, read-out: In vitro Tumor Cell Proliferation (IC50, μM) Colon Colo-205. In a few lines: as §1
For test [10], the target named is T2, cdk4/cyclin D1 (Homo sapiens, UniProt P11802).
T2 construct: made in house; host or cells: Sf9 insect cells (Bac-to-Bac baculovirus, pFastBac)
T2 sequence (P11802 whole entry): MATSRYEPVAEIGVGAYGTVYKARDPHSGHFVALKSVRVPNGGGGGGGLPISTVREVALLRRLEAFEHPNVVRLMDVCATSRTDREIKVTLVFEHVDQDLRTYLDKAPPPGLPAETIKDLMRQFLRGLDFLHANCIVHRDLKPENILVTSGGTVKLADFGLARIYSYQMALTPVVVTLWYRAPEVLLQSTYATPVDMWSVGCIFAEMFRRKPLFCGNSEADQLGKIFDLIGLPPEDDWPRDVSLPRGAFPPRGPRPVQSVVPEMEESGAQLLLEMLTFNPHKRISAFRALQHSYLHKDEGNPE
T2 sequence (P24385 whole entry partner): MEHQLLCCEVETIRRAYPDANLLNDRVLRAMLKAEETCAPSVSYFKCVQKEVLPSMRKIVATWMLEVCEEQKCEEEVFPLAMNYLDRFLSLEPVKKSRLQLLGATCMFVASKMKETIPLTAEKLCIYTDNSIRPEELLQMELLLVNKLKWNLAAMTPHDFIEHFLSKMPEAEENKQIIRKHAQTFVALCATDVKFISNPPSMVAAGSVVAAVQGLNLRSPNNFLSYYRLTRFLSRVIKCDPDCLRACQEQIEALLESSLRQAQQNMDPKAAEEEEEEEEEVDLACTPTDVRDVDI
Briefly: Cyclin-dependent Kinase 4 Assay (cdk4/cyclin D1, GST-Rb substrate). Format: biochemical. The settings on record: cdk4/cyclin D1 insect cell lysate, 10 μM ATP, 30 min at 37° C., several values = separate determinations, read-out: CDK4 Inhibition IC50. In a few lines: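 Insect-cell lysate of coexpressed cdk4/cyclin D1 (0.1 μg) acts on GST-Rb (0.5 μg) bound to glutathione-Sepharose, in 50 mM HEPES pH 7.5, 10 mM MgCl2, 1 mM EGTA. Reaction runs 30 min at 37 °C, then is stopped by filtration and TNEN washes. Rb phosphorylation read by scintillation counting; IC50 derived.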

In test [11] the test system is MDA-MB-435. In words: In vitro tumor cell proliferation, MDA-MB-435. In kind it is cell-based. As to conditions: values given with an undefined *, read-out: In vitro Tumor Cell Proliferation (IC50, μM) Breast MDA-MB-435. The gist of the method: as §1
The mark [12] stands for this setting: Homo sapiens, MDA-MB-231, MDA-MB-231.
Setting [13] is: Homo sapiens, COLO 205, Colo-205.
[14] abbreviates: Homo sapiens, MDA-MB-435, MDA-MB-435.

For `COc1ccc(CNc2nc(N[C@H]3CC[C@H](N)CC3)nc3c2ncn3C2CCCC2)c(OC)c1` [Example 17, 2-[Trans-(4-aminocyclohexyl)amino]-6-[(2,4-dimethoxybenzyl)amino]-9-cyclopentylpurine dihydrochloride], the IC50 in test [1] (Homo sapiens, PC-3, PC-3) was found to be 4 µM; in test [2], 9.9 µM; in test [3] (setting [12]), 6.1 µM; in [3] (MDA-MB-231, dihydrochloride) it was 7.9 µM; in test [4] (Homo sapiens, HT-29, HT-29), 6.8 µM; in test [5], 350 nM. Also, the IC50 was found to be 7.5 µM in test [6] (A549, dihydrochloride); 6.8 µM in test [6] (Homo sapiens, A549, A549); 6.9 µM in test [7] (DU145, dihydrochloride); 3.6 µM in test [7] (Homo sapiens, DU-145, DU145); 5.8 µM in test [8] (DMS-114, dihydrochloride); 5.3 µM in [8] (Homo sapiens, DMS-114, DMS-114).

For `N[C@H]1CC[C@H](Nc2nc(NC3CCN(Cc4cc(Cl)cc(Cl)c4)CC3)c3ncn(C4CCCC4)c3n2)CC1` [Example 147-w, 2-[Trans-(4-aminocyclohexyl)amino]-6-[4-[1-(3,5-dichlorobenzyl)]piperidinylamino]-9-cyclopentylpurine trihydrochloride], the IC50 in test [1] (Homo sapiens, PC-3, PC-3) was 0.44 µM; in test [1] (PC-3, trihydrochloride), 0.46 µM; in test [9] (setting [13]) it was 0.32 µM; in test [3] (setting [12]), 0.35 µM; in test [3] (MDA-MB-231, trihydrochloride), 0.4 µM; in [10], 4000 nM and 2100 nM. For the same compound, the IC50 is 0.39 µM in [4] (HT-29, trihydrochloride); 0.37 µM in test [4] (Homo sapiens, HT-29, HT-29); 130 nM and 180 nM in test [5]; 0.57 µM in test [11] (setting [14]); 0.51 µM in test [11] (MDA-MB-435, trihydrochloride); 0.21 µM in test [6] (Homo sapiens, A549, A549). The IC50 is 0.39 µM in test [7] (DU145, trihydrochloride); 0.35 µM in test [7] (Homo sapiens, DU-145, DU145); 0.45 µM in test [8] (Homo sapiens, DMS-114, DMS-114).

Consider `N[C@H]1CC[C@H](Nc2nc(NC3CCN(Cc4ccc(Cl)cc4Cl)CC3)c3ncn(C4CCCC4)c3n2)CC1` [Example 147-x, 2-[Trans-(4-aminocyclohexyl)amino]-6-[4-[1-(2,4-dichlorobenzyl)]piperidinylamino]-9-cyclopentylpurine trihydrochloride], for which the IC50 in [1] (Homo sapiens, PC-3, PC-3) was found to be 0.54 µM; in [1] (PC-3, trihydrochloride), 0.65 µM; in test [9] (Colo-205, trihydrochloride), 0.62 µM; in test [9] (setting [13]), 0.59 µM; in [3] (setting [12]) it was 0.85 µM; in test [3] (MDA-MB-231, trihydrochloride), 0.67 µM. The IC50 is 3800 nM and 3900 nM in test [10]; 0.6 µM in [4] (HT-29, trihydrochloride); 0.72 µM in [4] (Homo sapiens, HT-29, HT-29); 320 nM in test [5]; 0.75 µM in test [11] (setting [14]); 0.92 µM in test [11] (MDA-MB-435, trihydrochloride). Moreover, the IC50 in test [6] (A549, trihydrochloride) worked out at 0.45 µM; in test [6] (Homo sapiens, A549, A549), 0.44 µM; in test [7] (DU145, trihydrochloride), 0.53 µM; in [7] (Homo sapiens, DU-145, DU145), 0.49 µM; in [8] (DMS-114, trihydrochloride) it was 0.7 µM; in test [8] (Homo sapiens, DMS-114, DMS-114), 1 µM.

Regarding `Cc1ccc(CN2CCC(Nc3nc(N[C@H]4CC[C@H](N)CC4)nc4c3ncn4C3CCCC3)CC2)cc1Cl` [Example 147-y, 2-[Trans-(4-aminocyclohexyl)amino]-6-[4-[1-(3-chloro-4-methylbenzyl)]piperidinylamino]-9-cyclopentylpurine trihydrochloride], the IC50 in test [1] (PC-3, trihydrochloride) was 0.35 µM and 0.46 µM; in [9] (Colo-205, trihydrochloride) it was 0.32 µM and 0.35 µM; in test [3] (MDA-MB-231, trihydrochloride), 0.34 µM and 0.35 µM; in test [10] (trihydrochloride) it was 5400 nM and 4800 nM; in test [4] (HT-29, trihydrochloride), 0.41 µM and 0.38 µM; in test [5] (trihydrochloride) it was 510 nM and 670 nM. For the same compound, the IC50 in test [11] (MDA-MB-435, trihydrochloride) was 0.47 µM and 0.55 µM; in [6] (A549, trihydrochloride) it was 0.16 µM and 0.29 µM; in test [7] (DU145, trihydrochloride), 0.33 µM and 0.35 µM; in test [8] (DMS-114, trihydrochloride), 0.4 µM and 0.45 µM.

Turning to `N[C@H]1CC[C@H](Nc2nc(NC3CCN(Cc4ccc(OC(F)(F)F)cc4)CC3)c3ncn(C4CCCC4)c3n2)CC1` [Example 147-z, 2-[Trans-(4-aminocyclohexyl)amino]-6-[4-[1-(4-trifluoromethoxybenzyl)]piperidinylamino]-9-cyclopentylpurine trihydrochloride], the IC50 is 0.33 µM and 0.44 µM in test [1] (PC-3, trihydrochloride); 0.38 µM and 0.46 µM in test [9] (Colo-205, trihydrochloride); 0.37 µM and 0.35 µM in test [3] (MDA-MB-231, trihydrochloride); 7900 nM and 5700 nM in test [10] (trihydrochloride); 0.43 µM and 0.44 µM in test [4] (HT-29, trihydrochloride); 720 nM and 1000 nM in [5] (trihydrochloride). Besides, the IC50 is 0.5 µM and 0.57 µM in [11] (MDA-MB-435, trihydrochloride); 0.18 µM and 0.3 µM in test [6] (A549, trihydrochloride); 0.28 µM and 0.36 µM in test [7] (DU145, trihydrochloride); 0.34 µM and 0.42 µM in test [8] (DMS-114, trihydrochloride).
